Reference: patent publication US20090264382A1, “Methods for Treating Hematopoietic Neoplasms” (priority 2007, published 2009)

Assays:
AML cell lines = experiment: Annexin-V/propidium iodide apoptosis by flow cytometry; assay type: cell-based, human; settings: 48 hours
Description: CA4P-treated AML cells were subjected to Annexin-V/propidium iodide (PI) staining and quantification by flow cytometry. Combretastatin A-4 phosphate (CA4P) induces caspase-independent apoptosis in leukemic cells. CA4P induces apoptosis of leukemic cells. Leukemic cells were treated with or without CA4P for 48 hours and the percentage of apoptotic leukemic cells was determined by Annexin V and propidium iodide staining using flow cytometry. Results are representative of three independent experiments. […] In the majority of AML cell lines tested, CA4P at a concentration of 5 nM induced phosphatidylserine externalization (Annexin V+) in more than 50% of the leukemic cells.

leukemic cells [1] = experiment: Release of mitochondrial membrane proteins, immunofluorescence; assay type: cell-based, human; settings: after CA4P exposure, data not shown
From the text: Mitochondrial damage may result in the release of pro-apoptotic mitochondrial membrane proteins (MMPs) such as cytochrome c, SMAC/diablo and ARTS. […] Cytochrome c and ARTS were detected using mAb clone 6H2.B4 (1:100, BD Pharmingen) and polyclonal-antibody A3720 (1:50, Sigma), both followed by AlexaFluor 488 conjugated secondary antibody (1:200, Molecular Probes) and analyzed by confocal microscopy.

GFP+HL60 cells = experiment: Systemic in vivo leukemia model, GFP+HL60; parameters: species or system NOD-SCID mice
Description: (§1) NOD-SCID mice were intravenously inoculated with 1×10^7 GFP+HL60 cells. The HL60 cells were labeled with green fluorescent protein (GFP) by a lentiviral construct, and inoculated systemically through tail vein injection. Three days after inoculation, mice were divided into 2 groups of five mice. One group was treated every other day with PBS (control) and the second group received 25 mg/kg CA4P every other day. Each experiment was done three times. At day 30 after the start of the experiment, two mice from each group were killed, and their organs (spleen, liver and lung), peripheral blood and marrow of surgically removed femurs were collected, and analyzed for the presence of human leukemic cells by flow cytometry. Single cell suspension was stained using phytoerythrin-labeled anti-human CD45 mAb (Pharmingen), and the percentage of double positive human CD45-PE and GFP cells was determined flow cytometer. The extent of GFP+HL60 cell infiltration was assessed by fluorescence microscopy. In a second set of experiments, GFP+U937 cells were used instead of HL60 cells, and the animals sacrificed after 30 days.
In the untreated control group, the mice survived for 32-40 days only and succumbed to systemic spread of leukemia. […] This increase in survival was accompanied by a decrease in circulating leukemic cells observed 30 days after leukemic cell injection, as assessed by flow cytometry determination of double positive cells for human CD45 and GFP (0.9% for control vs. 0.2% for CA4P treatment, p<0.05, n=5) (FIG. 12). Thirty days after xenotransplantation of GFP+HL60 cell injection, the presence of GFP+HL60 cells in the peripheral blood and the different tissues of the mice was assessed by quantification of double positive GFP and human CD45 cells by flow cytometry. […] In contrast, control mice had massive leukemic infiltrates in the spleen (5.2%), liver (2.6%) and lung (3.5%) (FIG. 12).

KG1a leukemic cells = experiment: Release of nuclear HMG1 protein into supernatant (necrosis marker), Western blot; assay type: cell-based, human; settings: 24 hours, CA4P 20 mM, staurosporine 100 μM as printed
Description: Nonetheless, to rule out the possibility that CA4P may trigger necrotic cell death in subsets of the leukemic cells, the release of nuclear HMG1 protein into the culture supernatant, which has been described as a sensitive and highly specific marker for necrotic cell death (Scaffidi, et al. 2002. Nature 418, 191-5), was quantified. For detection of HMG1 protein, KG1a leukemic cells (1×106 in 2 ml X-vivo/5% FBS) were incubated with 100 μM staurosporine to induce apoptosis, freeze-thawed three times to induce necrosis, or treated with 20 mM CA4P for 24 hours. Cells were spun down, pelleted and the supernatant subjected to Western blot for HMG135.

GFP-labeled U937 cells = experiment: Systemic in vivo leukemia model, GFP+U937; parameters: species or system NOD-SCID mice; settings: after 30 days, data not shown
Description: as §1, with “days. […]” for “days.”

[2] = Bone marrow toxicity, serial complete blood counts; assay type: in vivo, CD1 mice; settings: 25 mg/kg subcutaneously every other day for 4 weeks
Description: Eight week-old sex matched CD1 mice (Jackson Laboratory, Bar Harbor, Me.) were treated with CA4P at 25 mg/kg subcutaneously every other day for 4 weeks.

leukemic cells [3] = experiment: Comet assay for DNA damage; assay type: cell-based, human; settings: after CA4P treatment
Description: DNA damage in CA4P-incubated leukemic cells was assessed by comet assay. The concept behind this assay is based upon the ability of denatured, cleaved DNA fragments to migrate out of the cell under the influence of an electric field, whereas undamaged DNA migrates more slowly and remains within the confines of the nucleus. Evaluation of the DNA “comet” tail shape and migration pattern allows for assessment of DNA damage. Results were expressed as the percentage of cells with a comet tail in 100 randomly selected, non-overlapping cells visualized by standard light microscopy. […] Results of three experiments in duplicate are expressed as the mean of the number of cells with a comet tail (%)±SEM (*p<0.05 as compared with CA4P-untreated cells; n=3).

leukemic cells [4] = experiment: Intracellular ROS detection with H2DCFDA; assay type: cell-based, human; settings: after CA4P exposure
Description: Intracellular ROS were detected as previously described (Krejsa & Schieven, Methods Mol Biol 99:35-47 (2000)). Briefly, leukemic cells were loaded with 2 μM H2DCFDA (Molecular Probes) in assay buffer (RPMI with 10 mM HEPES) for 30 min. at 37° C. and mean fluorescent intensity was measured by flow cytometry. Results are shown from triplicate measurements (±SEM) and are representative of three independent experiments (*p<0.05 as compared with untreated cells; n=3).

[5] = day 30, 25 mg/kg every other day

With `COc1ccc(/C=C\c2cc(OC)c(OC)c(OC)c2)cc1OP(=O)(O)O` [CA4P, combretastatin A-4 phosphate] the “leukemic cells with phosphatidylserine externalization (Annexin V+)” value (AML cell lines; 5 nM, majority of AML cell lines tested) was “more than 50%”, the “PI+, Annexin V(−) cells (necrotic)” value (AML cell lines) was “Only a small number” and the “mitochondrial membrane protein release” value (leukemic cells [1]) was “release of cytochrome c and ARTS from mitochondria”. The “survival of intravenously xenotransplanted mice” value (GFP+HL60 cells; 25 mg/kg every other day) was “significantly increased survival”, the “circulating leukemic cells (human CD45 and GFP double positive) in peripheral blood” value (GFP+HL60 cells; [5]) was 0.2% and the “engraftment of leukemic cells in the bone marrow” value (GFP+HL60 cells; [5]) was “completely eradicated”. For the same molecule, the “human CD45 and GFP positive cells in the liver” value (GFP+HL60 cells; [5]) was 0.1%, the “infiltration of GFP+HL60 cells in the lung” value (GFP+HL60 cells; [5]) was “no evidence of infiltration” and the “infiltration of GFP+HL60 cells in the spleen” value (GFP+HL60 cells; [5]) was “no evidence of infiltration”. The “release of nuclear HMG1 protein into the supernatant” value (KG1a leukemic cells) was “not”, the “GFP-positive U937 leukemic cells in the bone marrow” value (GFP-labeled U937 cells) was “less than 0.05%” and the “GFP-positive U937 leukemic cells in the liver” value (GFP-labeled U937 cells) was “less than 0.05%”. The “WBC and absolute neutrophil count” value [2] was “slight decrease”, the “number of leukemic cells displaying a comet tail” value (leukemic cells [3]) was “strongly increased” and the “intracellular ROS (H2DCFDA fluorescence)” value (leukemic cells [4]) was “rapid accumulation of superoxide anions”.
